Experimental data from patent publication US20250115612A1, “CERTAIN 2,5-DIAZABICYCLO[4.2.0]OCTANES AND OCTAHYDROFURO[3,4-B]PYRAZINES AS GLP-1 RECEPTOR MODULATORS” (ASTRAZENECA AB, priority 2021, published 2025).

Assays:
human GLP-1R receptor = molecular target: T1, human GLP-1R receptor (Homo sapiens, UniProt P43220, L260F); experiment: CHOK1 GLP-1R cAMP assay (HTRF); format: cell-based; conditions: CHO-K1 cells stably expressing human GLP-1R
T1 construct: expressed in transfected cells; host or cells: CHO-K1 (ATCC CCL-61)
Procedure, shortened: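 Cells were CHO-K1 stably expressing human GLP-1R (Leu260Phe variant), at 800 cells/well in HEPES pH 7.4/HBSS/0.1% BSA with IBMX, stimulated 20 min at rt. cAMP was measured by competitive HTRF and converted via a standard curve. EC50 came from a 4-parameter logistic fit, with % effect relative to a saturating GLP-1(7-36)NH2 concentration.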

GLP-1R = molecular target: T2, GLP-1R (Homo sapiens, UniProt P43220); experiment: EndoC cAMP accumulation assay (HTRF, EndoC-βH1 cells); format: cell-based; conditions: EndoC-βH1 human pancreatic β cell line
T2 construct: host or cells: EndoC-βH1
Procedure, shortened: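 Thawed cryopreserved EndoC-βH1 cells, about 3000 per well, were stimulated for 30 min at room temperature. Buffer was HBSS with 25 mM HEPES pH 7.4, 0.1% BSA and 0.5 mM IBMX. cAMP was measured by competitive HTRF after 1 h lysis/detection (590/660 nm). Four-parameter fits gave % activation between basal and maximal GIP (82.5 nM) signal.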

[1] = molecular target: T3, human phosphodiesterase-3A (Homo sapiens, UniProt Q14432); experiment: PDE3 assay (formation of 5'AMP from cAMP, SPA); format: biochemical; conditions: human recombinant enzyme expressed in Sf9 cells
T3 construct: host or cells: Sf9 (Spodoptera frugiperda)
Experimental: Evaluation of the effects of compounds on the activity of the human phosphodiesterase-3A is quantified by measuring the formation of 5′AMP from cAMP using a human recombinant enzyme expressed in a clonal isolate of Spodoptera frugiperda cells (Sf9) cells.
The test compound, reference compound or water (control) are added to a buffer containing 40 mM tris(hydroxymethyl)aminomethane (Tris)/HCl (pH 7.4) and 8 mM MgCl2, 450 nMcAMP and 0.25 μCi [3H]cAMP.
Thereafter, the reaction is initiated by addition of the enzyme (about 1 U) and the mixture is incubated for 20 min at 22° C.
For basal control measurements, the enzyme is omitted from the reaction mixture.
Following incubation SPA beads are added. After 30 min at 22° C. under shaking, the amount of [^3H]5′AMP is quantified with a scintillation counter (Topcount, Packard).
The results are expressed as a percent inhibition of the control enzyme activity. The standard inhibitory reference compound is milrinone (CAS number 78415-72-2), which is tested in each experiment at several concentrations to obtain an inhibition curve from which its IC50 value is calculated.

T3 sequence (Q14432 whole entry): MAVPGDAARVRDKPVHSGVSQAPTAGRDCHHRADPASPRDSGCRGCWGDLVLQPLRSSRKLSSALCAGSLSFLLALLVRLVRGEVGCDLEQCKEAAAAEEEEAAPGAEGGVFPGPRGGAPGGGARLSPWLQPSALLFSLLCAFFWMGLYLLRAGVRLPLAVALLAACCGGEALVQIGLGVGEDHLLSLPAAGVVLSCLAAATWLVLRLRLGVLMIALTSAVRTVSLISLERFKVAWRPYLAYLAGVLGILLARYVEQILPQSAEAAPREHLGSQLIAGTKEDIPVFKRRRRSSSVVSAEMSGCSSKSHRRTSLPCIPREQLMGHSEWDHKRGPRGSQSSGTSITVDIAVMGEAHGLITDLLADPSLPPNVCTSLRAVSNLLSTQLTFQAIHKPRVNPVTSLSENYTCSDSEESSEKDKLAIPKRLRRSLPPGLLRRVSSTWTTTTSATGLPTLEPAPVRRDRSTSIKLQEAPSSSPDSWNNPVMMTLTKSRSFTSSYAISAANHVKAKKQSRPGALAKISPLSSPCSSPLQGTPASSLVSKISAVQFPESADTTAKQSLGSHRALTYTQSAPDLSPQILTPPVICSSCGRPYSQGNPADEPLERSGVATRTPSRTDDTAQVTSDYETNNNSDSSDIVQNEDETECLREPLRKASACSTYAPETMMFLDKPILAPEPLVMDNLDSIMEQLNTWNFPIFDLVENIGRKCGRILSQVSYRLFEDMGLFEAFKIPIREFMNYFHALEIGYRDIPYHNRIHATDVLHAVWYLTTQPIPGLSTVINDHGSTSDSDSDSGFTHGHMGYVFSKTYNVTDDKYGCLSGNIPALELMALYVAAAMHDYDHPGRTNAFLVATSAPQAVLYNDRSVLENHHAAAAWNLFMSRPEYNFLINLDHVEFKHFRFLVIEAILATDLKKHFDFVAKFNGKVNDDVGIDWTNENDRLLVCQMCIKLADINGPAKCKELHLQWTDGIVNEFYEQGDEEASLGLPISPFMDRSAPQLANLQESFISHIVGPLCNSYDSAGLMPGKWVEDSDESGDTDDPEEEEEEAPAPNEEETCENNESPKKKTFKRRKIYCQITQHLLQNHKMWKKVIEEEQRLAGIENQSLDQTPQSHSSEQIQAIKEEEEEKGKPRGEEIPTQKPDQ
T2 sequence (P43220 24-463): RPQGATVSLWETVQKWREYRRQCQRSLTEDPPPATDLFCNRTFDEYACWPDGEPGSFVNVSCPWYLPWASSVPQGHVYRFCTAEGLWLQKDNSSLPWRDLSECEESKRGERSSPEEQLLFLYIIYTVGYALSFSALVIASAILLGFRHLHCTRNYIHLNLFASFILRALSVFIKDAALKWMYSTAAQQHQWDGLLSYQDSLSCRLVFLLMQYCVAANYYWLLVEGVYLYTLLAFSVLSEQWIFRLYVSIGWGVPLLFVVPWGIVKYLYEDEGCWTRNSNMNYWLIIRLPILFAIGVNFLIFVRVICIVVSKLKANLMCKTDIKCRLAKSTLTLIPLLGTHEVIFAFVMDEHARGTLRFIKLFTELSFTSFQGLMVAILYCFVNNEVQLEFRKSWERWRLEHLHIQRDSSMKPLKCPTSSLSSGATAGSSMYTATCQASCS
T1 sequence (P43220 24-463 L260F): as the sequence (P43220 24-463) above, with L237F counted along it

EC50 (human GLP-1R receptor): 1.1 nM | EC50 (GLP-1R): 8.7 nM | IC50 [1]: 11000 nM
SMILES: N#Cc1ccc(COc2cccc(N3CCN(Cc4nc5c(F)cc(C(=O)O)cc5n4C[C@@H]4CCO4)[C@H]4CC[C@@H]43)n2)c(F)c1 (single isomer, unassigned) [Example 3b, 2-(((1R*,6R*)-5-(6-((4-Cyano-2-fluorobenzyl)oxy)pyridin-2-yl)-2,5-diazabicyclo[4.2.0]octan-2-yl)methyl)-4-fluoro-1-(((S)-oxetan-2-yl)methyl)-1H-benzo[d]imidazole-6-carboxylic acid]
